Laboratory results taken from patent US20260200978A1, “PEPTIDE INHIBITORS OF BETA-LACTAMASE” (priority 2022, published 2026).
Square brackets hold non-standard residues; d marks the D form. Peptide text beside a SMILES is read from it.

How the values were obtained:
TEM-1 β-lactamase = TEM-1 β-lactamase (Escherichia coli, UniProt P62593); experiment: β-lactamase colorimetry assay (TEM-1 inhibition); assay type: biochemical, E. coli; conditions: for TEM-1 inhibition compared with T61-25: β-lactamase colorimetry assay
Sequence of TEM-1 β-lactamase (P62593 24-286 limits assumed): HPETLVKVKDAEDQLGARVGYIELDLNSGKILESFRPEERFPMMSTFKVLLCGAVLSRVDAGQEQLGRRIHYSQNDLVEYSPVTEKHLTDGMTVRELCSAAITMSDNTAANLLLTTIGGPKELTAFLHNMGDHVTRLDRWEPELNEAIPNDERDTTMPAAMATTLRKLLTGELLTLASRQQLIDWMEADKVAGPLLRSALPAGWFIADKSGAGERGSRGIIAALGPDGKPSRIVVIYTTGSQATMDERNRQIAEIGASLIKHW
Text: The bacteria can express a β-lactamase and the antibacterial peptide can inhibit the ability of the β-lactamase to cleave a β-lactam ring. This can be measured using a beta lactamase inhibition assay like a commercially available beta lactamase inhibitor screening kit. These kits test the ability of a beta lactamase to hydrolyze a chromogenic substrate, which results in the generation of a colored product. The amount of color produced is directly proportional to the amount of beta-lactamase activity. In the presence of beta lactamase inhibitors, such as clavulanic acid or the antibacterial peptides described herein, the rate of substrate hydrolysis will decrease resulting in a decrease in the production of colored analyte. The non-peptide β-lactamase inhibitor can include clavulanate, clavulanic acid, sulbactam, taobactam, avibactam, relebacam, RG6080, or RPX7009.

PBP2a = PBP2a (Staphylococcus aureus, UniProt P07944); experiment: PBP2a colorimetry assay; assay type: biochemical
Sequence of PBP2a (P07944 whole entry): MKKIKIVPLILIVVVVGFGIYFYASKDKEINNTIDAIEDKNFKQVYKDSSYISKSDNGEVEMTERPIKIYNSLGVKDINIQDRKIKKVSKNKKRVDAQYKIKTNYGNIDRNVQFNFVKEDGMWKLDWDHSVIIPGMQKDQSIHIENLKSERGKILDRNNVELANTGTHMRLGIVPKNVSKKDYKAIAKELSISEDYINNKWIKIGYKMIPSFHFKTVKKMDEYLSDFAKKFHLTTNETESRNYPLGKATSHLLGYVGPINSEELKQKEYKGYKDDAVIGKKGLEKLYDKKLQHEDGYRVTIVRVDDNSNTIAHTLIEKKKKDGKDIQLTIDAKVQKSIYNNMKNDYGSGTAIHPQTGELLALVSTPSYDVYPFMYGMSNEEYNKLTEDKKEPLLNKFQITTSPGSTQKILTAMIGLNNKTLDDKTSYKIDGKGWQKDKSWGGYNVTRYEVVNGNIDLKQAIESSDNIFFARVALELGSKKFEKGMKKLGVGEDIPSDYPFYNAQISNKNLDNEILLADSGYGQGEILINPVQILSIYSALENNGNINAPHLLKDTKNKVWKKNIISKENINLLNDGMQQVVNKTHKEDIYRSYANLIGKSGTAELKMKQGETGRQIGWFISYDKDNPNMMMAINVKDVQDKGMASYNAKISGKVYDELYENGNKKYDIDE
Text: Methicillin-resistant Staphylococcus aureus (MRSA) contains the mecA gene in a mobile genetic element found in all MRSA strains, which encodes penicillin-binding protein 2a (PBP2a). PBPs are membrane-bound enzymes that catalyze the transpeptidation reaction that is necessary for cross-linkage of peptidoglycan chains for cell wall formation and targeted by β-lactam. Because of the low affinity of PBP2a for all β-lactam antibiotics, it can substitute for other PBPs under high concentrations of f-lactam antibiotics. As a result. MRSA strains are highly resistant to β-lactam antibiotics.

[1] = 25% human serum, 0 hours and 24 hours (FIG. 1)
SAP231 = experiment: Enhancement of cefazolin killing of MRSA; assay type: cell-based, Staphylococcus aureus; conditions: at the test concentrations, 0 μg/ml peptide
Description: FIGS. 4A and 4B are graphs showing RI-D-BP100-T61-25 combined with cefazolin and tested against both SAP231 (FIG. 4A) and NRS384 strain (FIG. 4B).
Additionally, the peptide's potency at enhancing cefazolin killing of MRSA was also tested. Cefazolin is a cephalosporin, which are improved β-lactams developed to overcome some of the early penicillin resistance. Cefazolin is a first line therapy for the treatment of Methicillin-susceptible Staphylococcus aureus (MSSA) infections. […] RI-D-BP100-T61-25 was also combined with cefazolin and tested against both SAP231 (FIG. 4A) and NRS384 strain (FIG. 4B).

CC(C)C[C@H](NC(=O)[C@H](Cc1ccc(O)cc1)NC(=O)[C@H](NC(=O)[C@@H](N)CCCCN)[C@H](C)O)C(=O)N[C@@H](C)C(=O)N[C@@H](CCC(N)=O)C(=O)N[C@@H](C)C(=O)N[C@@H](C)C(=O)N[C@@H](C)C(=O)N[C@H](C(=O)NCC(=O)O)[C@@H](C)O [D-T2]
TEM-1 inhibition compared with T61-25 (TEM-1 β-lactamase): maintained comparable levels of TEM-1 inhibition as T61-25

CC(C)C[C@@H](NC(=O)[C@@H](Cc1ccc(O)cc1)NC(=O)[C@H](NC(=O)[C@H](N)CCCCN)[C@H](C)O)C(=O)N[C@H](C)C(=O)N[C@H](CCC(N)=O)C(=O)N[C@H](C)C(=O)N[C@H](C)C(=O)N[C@H](C)C(=O)N[C@@H](C(=O)NCC(=O)O)[C@H](C)O [D-T61-25]
TEM-1 inhibition compared with T61-25 (TEM-1 β-lactamase): maintained comparable levels of TEM-1 inhibition as T61-25

CC(C)C[C@H](NC(=O)[C@H](Cc1ccc(O)cc1)NC(=O)[C@@H](NC(=O)[C@@H](N)CCCCN)[C@@H](C)O)C(=O)N[C@@H](C)C(=O)N[C@@H](CCC(N)=O)C(=O)N[C@@H](C)C(=O)N[C@@H](C)C(=O)N[C@@H](C)C(=O)N[C@H](C(=O)NCC(=O)O)[C@@H](C)O [Inhibitor T61-25]
inhibition of PBP2a activity (PBP2a): capable of inhibiting PBP2a activity at μM range

CC[C@@H](C)[C@@H](NC(=O)[C@@H](CC(C)C)NC(=O)[C@@H](CCCCN)NC(=O)[C@@H](Cc1ccc(O)cc1)NC(=O)[C@@H](CC(C)C)NC(=O)[C@@H](CCCCN)NC(=O)[C@H](NC(=O)[C@@H](Cc1ccc(O)cc1)NC(=O)[C@@H](CC(C)C)NC(=O)[C@@H](C)NC(=O)[C@@H](CCC(N)=O)NC(=O)[C@@H](C)NC(=O)[C@@H](C)NC(=O)[C@@H](C)NC(=O)[C@H](NC(=O)CN)[C@H](C)O)[C@H](C)O)C(=O)N[C@H](CCCCN)C(=O)N[C@H](CCCCN)C(=O)N[C@H](Cc1ccccc1)C(=O)N[C@H](CC(C)C)C(=O)N[C@H](CCCCN)C(=O)N[C@H](CCCCN)C(=O)O [RI-D-BP100-T61-25, dGdTdAdAdAdQdAdLdYdTdKdLdYdKdLdIdKdKdFdLdKdK] (H-G[dT][dA][dA][dA][dQ][dA][dL][dY][dT][dK][dL][dY][dK][dL][dI][dK][dK][dF][dL][dK][dK]-OH; N-terminus and C-terminus assumed)
serum stability [1]: better than the L-peptide BP100-T61-25

CC(C)C[C@@H](NC(=O)[C@@H](C)NC(=O)[C@@H](CCC(N)=O)NC(=O)[C@@H](C)NC(=O)[C@@H](C)NC(=O)[C@@H](C)NC(=O)[C@H](NC(=O)CN)[C@H](C)O)C(=O)N[C@H](Cc1ccc(O)cc1)C(=O)N[C@@H](C(=O)N[C@H](CCCCN)C(=O)O)[C@H](C)O [RI-D-T61-25, dGdTdAdAdAdQdAdLdYdTdK]
Ki (TEM-1 β-lactamase): 880 ± 40 nM | TEM-1 inhibition compared with T61-25 (TEM-1 β-lactamase): maintained comparable levels of TEM-1 inhibition as T61-25

Cc1nnc(SCC2=C(C(=O)O)N3C(=O)[C@@H](NC(=O)Cn4cnnn4)[C@H]3SC2)s1 [cefazolin, Cefazolin]
inhibition of SAP231 growth by cefazolin alone (SAP231): partially inhibited
